Read-outs that look alike come from different tables or passages of the source.
Tests used:
Assay type in all cases: cell-based
168 GPCRs [1] = target: T1, 168 GPCRs (Homo sapiens, UniProt P41597)
T1 construct: host or cells: PathHunter cell lines

168 GPCRs [2] = target: T2, 168 GPCRs (Homo sapiens, UniProt O43614)
T2 construct: host or cells: PathHunter cell lines
T2 sequence (O43614 1-444): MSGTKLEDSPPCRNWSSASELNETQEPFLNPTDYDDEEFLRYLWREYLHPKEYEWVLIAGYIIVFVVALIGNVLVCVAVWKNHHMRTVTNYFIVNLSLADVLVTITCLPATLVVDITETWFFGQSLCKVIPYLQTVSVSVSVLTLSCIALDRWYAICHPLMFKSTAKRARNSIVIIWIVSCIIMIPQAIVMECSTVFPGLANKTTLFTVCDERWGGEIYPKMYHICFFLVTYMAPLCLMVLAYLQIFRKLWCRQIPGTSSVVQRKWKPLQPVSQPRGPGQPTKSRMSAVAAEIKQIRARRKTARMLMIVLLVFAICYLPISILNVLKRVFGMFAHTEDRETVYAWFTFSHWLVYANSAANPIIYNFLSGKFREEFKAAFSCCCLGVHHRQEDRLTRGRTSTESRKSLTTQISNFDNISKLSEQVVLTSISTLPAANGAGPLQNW

168 GPCRs [3] = target: T3, 168 GPCRs (Homo sapiens, UniProt P61073)
T3 construct: host or cells: PathHunter cell lines

168 GPCRs [4] = target: T4, 168 GPCRs (Homo sapiens, UniProt Q99705)
T4 construct: host or cells: PathHunter cell lines

168 GPCRs [5] = target: T5, 168 GPCRs (Homo sapiens, UniProt P43116); conditions: PTGER2
T5 construct: host or cells: PathHunter cell lines

168 GPCRs [6] = target: T6, 168 GPCRs (Homo sapiens, UniProt P49683); conditions: PRLHR
T6 construct: host or cells: PathHunter cell lines
T6 sequence (P49683 1-370): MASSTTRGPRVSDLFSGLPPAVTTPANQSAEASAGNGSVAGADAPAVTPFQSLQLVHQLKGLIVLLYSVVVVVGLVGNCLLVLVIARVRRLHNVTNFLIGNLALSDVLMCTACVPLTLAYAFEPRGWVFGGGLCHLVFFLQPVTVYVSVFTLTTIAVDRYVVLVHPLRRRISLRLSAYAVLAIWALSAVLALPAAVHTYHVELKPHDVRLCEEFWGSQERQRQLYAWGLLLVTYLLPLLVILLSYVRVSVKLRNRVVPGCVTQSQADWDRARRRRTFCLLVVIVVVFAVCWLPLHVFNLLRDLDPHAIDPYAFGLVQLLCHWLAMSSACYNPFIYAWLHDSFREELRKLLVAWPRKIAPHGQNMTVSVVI

168 GPCRs [7] = target: T7, 168 GPCRs (Homo sapiens, UniProt P47900); conditions: P2RY1
T7 construct: host or cells: PathHunter cell lines

168 GPCRs [8] = target: T8, 168 GPCRs (Homo sapiens, UniProt P49146); conditions: NPY2R
T8 construct: host or cells: PathHunter cell lines
T8 sequence (P49146 1-381): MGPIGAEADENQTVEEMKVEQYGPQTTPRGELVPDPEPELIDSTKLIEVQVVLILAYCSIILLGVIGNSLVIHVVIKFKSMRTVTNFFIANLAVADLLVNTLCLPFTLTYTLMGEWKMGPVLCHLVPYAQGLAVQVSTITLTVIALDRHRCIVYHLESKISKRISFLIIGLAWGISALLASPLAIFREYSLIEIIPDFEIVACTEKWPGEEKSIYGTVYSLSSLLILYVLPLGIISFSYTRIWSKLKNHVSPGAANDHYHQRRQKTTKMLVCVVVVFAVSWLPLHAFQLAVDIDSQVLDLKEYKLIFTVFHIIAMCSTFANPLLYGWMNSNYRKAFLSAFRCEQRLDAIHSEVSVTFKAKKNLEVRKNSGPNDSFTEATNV

168 GPCRs [9] = target: T9, 168 GPCRs (Homo sapiens, UniProt P43119); conditions: PTGIR
T9 construct: host or cells: PathHunter cell lines

168 GPCRs [10] = target: T10, 168 GPCRs (Homo sapiens, UniProt P48146)
T10 construct: host or cells: PathHunter cell lines
T10 sequence (P48146 whole entry): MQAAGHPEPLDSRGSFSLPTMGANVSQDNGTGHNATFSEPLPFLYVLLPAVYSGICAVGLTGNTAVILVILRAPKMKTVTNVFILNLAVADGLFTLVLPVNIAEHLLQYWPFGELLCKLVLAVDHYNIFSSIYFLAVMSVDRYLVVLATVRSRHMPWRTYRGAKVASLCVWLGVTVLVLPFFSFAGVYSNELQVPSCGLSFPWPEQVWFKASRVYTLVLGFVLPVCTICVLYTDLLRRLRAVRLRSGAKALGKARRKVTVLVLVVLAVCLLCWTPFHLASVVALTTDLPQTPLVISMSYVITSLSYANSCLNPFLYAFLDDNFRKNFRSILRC

T3 sequence (P61073 whole entry): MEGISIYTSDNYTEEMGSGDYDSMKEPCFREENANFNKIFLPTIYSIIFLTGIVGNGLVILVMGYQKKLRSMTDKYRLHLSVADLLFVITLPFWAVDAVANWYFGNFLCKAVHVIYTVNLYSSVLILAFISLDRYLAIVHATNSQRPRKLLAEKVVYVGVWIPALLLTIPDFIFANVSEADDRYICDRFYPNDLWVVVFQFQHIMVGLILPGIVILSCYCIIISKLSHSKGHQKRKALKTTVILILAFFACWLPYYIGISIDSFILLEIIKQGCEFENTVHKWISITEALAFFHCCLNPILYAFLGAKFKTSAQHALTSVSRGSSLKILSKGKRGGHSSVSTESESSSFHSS
T7 sequence (P47900 whole entry): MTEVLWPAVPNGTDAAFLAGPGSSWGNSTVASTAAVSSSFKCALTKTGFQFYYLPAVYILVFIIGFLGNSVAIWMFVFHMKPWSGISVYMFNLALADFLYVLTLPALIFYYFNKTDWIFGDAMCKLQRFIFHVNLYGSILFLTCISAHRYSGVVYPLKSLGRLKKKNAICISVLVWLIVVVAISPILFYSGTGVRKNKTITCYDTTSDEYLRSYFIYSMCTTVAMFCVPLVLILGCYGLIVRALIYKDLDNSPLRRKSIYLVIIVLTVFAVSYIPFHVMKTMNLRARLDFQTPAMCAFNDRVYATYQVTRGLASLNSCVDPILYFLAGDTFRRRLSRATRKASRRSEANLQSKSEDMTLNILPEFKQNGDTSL
T5 sequence (P43116 whole entry): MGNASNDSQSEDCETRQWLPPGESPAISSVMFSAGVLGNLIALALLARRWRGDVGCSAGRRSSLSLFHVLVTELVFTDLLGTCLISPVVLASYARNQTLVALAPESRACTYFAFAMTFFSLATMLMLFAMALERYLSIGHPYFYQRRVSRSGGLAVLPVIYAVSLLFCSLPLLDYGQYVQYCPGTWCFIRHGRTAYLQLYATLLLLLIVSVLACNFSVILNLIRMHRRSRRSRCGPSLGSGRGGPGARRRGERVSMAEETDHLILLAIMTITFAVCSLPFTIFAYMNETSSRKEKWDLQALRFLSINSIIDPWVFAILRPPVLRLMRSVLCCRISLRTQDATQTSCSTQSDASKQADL
T9 sequence (P43119 whole entry): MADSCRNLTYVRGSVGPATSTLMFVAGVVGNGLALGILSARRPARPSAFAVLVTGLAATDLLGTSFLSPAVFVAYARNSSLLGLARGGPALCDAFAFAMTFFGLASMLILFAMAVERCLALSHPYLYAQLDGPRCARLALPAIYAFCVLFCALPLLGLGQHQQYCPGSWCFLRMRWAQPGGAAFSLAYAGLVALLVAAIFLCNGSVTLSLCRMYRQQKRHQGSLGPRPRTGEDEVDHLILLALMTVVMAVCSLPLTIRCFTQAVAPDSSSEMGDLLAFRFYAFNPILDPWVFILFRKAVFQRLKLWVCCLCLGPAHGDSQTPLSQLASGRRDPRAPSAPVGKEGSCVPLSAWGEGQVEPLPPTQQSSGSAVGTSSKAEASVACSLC
T4 sequence (Q99705 whole entry): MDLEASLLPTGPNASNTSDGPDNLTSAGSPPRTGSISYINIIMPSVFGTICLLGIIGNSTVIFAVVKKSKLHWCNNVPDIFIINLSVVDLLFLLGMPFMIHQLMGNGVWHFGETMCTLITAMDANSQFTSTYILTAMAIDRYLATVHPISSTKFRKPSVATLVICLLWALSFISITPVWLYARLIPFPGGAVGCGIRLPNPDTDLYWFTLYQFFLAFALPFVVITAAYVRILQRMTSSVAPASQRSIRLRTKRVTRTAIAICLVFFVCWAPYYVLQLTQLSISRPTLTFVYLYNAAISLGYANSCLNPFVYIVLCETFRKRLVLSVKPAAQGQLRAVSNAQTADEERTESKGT
T1 sequence (P41597 whole entry): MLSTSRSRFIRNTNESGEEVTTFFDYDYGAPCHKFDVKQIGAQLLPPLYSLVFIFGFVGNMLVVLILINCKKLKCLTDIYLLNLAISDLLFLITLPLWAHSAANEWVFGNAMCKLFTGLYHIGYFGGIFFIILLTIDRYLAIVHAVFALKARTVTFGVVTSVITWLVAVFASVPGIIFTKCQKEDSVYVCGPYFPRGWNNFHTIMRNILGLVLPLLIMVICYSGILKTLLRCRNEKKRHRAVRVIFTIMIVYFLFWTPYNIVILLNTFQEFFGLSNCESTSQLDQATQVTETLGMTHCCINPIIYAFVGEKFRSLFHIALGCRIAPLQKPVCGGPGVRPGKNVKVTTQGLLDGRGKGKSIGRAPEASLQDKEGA

| SMILES | % Agonist Activity (168 GPCRs [1]; CCR2, 1 uM) [%] | % Antagonist Activity (168 GPCRs [1]; CCR2, 1 uM) [%] | % Agonist Activity (168 GPCRs [1]; CCR2, 10 uM) [%] | % Antagonist Activity (168 GPCRs [1]; CCR2, 10 uM) [%] | % Agonist Activity (168 GPCRs [2]; HCRTR2, 1 uM) [%] | % Antagonist Activity (168 GPCRs [2]; HCRTR2, 1 uM) [%] | % Agonist Activity (168 GPCRs [2]; HCRTR2, 10 uM) [%] | % Antagonist Activity (168 GPCRs [2]; HCRTR2, 10 uM) [%] | % Agonist Activity (168 GPCRs [3]; CXCR4, 1 uM) [%] | % Antagonist Activity (168 GPCRs [3]; CXCR4, 1 uM) [%] | % Agonist Activity (168 GPCRs [3]; CXCR4, 10 uM) [%] | % Antagonist Activity (168 GPCRs [3]; CXCR4, 10 uM) [%] | % Agonist Activity (168 GPCRs [4]; MCHR1, 1 uM) [%] | % Antagonist Activity (168 GPCRs [4]; MCHR1, 1 uM) [%] | % Agonist Activity (168 GPCRs [4]; MCHR1, 10 uM) [%] | % Antagonist Activity (168 GPCRs [4]; MCHR1, 10 uM) [%] | % Agonist Activity (168 GPCRs [5]; Conc 1 uM) [%] | % Antagonist Activity (168 GPCRs [5]; Conc 1 uM) [%] | % Agonist Activity (168 GPCRs [5]; Conc 10 uM) [%] | % Antagonist Activity (168 GPCRs [5]; Conc 10 uM) [%] | other results |
| --- | --- | --- | --- | --- | --- | --- | --- | --- | --- | --- | --- | --- | --- | --- | --- | --- | --- | --- | --- | --- | --- |
| CNC(C)Cc1ccc2c(c1)OCO2 (centres unmarked) [MDMA, 3,4-Methylenedioxy methamphetamine, reference compound] | 0.5 | 9.2 | 0.7 | 11.1 | -0.3 | 5.9 | -0.1 | -3.5 | 3.1 | 19.6 | 2.5 | 14.6 | -4 | 5.3 | -4.4 | 2.1 | 0.7 | -9.8 | 1.1 | -12.8 | % Agonist Activity (168 GPCRs [6]; Conc 1 uM): 1.5%; % Antagonist Activity (168 GPCRs [6]; Conc 1 uM): 6%; % Agonist Activity (168 GPCRs [6]; Conc 10 uM): -0.3%; % Antagonist Activity (168 GPCRs [6]; Conc 10 uM): 10.8%; % Agonist Activity (168 GPCRs [7]; Conc 1 uM): 0.3%; % Antagonist Activity (168 GPCRs [7]; Conc 1 uM): 2.8%; % Agonist Activity (168 GPCRs [7]; Conc 10 uM): -0.8%; % Antagonist Activity (168 GPCRs [7]; Conc 10 uM): 1.2%; % Agonist Activity (168 GPCRs [8]; Conc 1 uM): -0.1%; % Antagonist Activity (168 GPCRs [8]; Conc 1 uM): 12%; % Agonist Activity (168 GPCRs [8]; Conc 10 uM): 0.2%; % Antagonist Activity (168 GPCRs [8]; Conc 10 uM): 4.8%; % Agonist Activity (168 GPCRs [9]; Conc 1 uM): 2.3%; % Antagonist Activity (168 GPCRs [9]; Conc 1 uM): 18.8%; % Agonist Activity (168 GPCRs [9]; Conc 10 uM): 8.6%; % Antagonist Activity (168 GPCRs [9]; Conc 10 uM): 22.7%; % Agonist Activity (168 GPCRs [10]; NPBWR2, 1 uM): -2.6%; % Antagonist Activity (168 GPCRs [10]; NPBWR2, 1 uM): -2.1%; % Agonist Activity (168 GPCRs [10]; NPBWR2, Conc 10 uM): -2.3%; % Antagonist Activity (168 GPCRs [10]; NPBWR2, Conc 10 uM): 2.4% |
| CNC(C)C(=O)c1ccc2c(c1)OCO2 (centres unmarked) [methylone] | -0.4 | 2 | -0.5 | 4.9 | 0.2 | 6.4 | 0.2 | 2.4 | -4 | 10.7 | 7 | -4.2 | 3.9 | -12.2 | 3.1 | -18.3 | -1.4 | 12.7 | -3.1 | -4.4 | % Agonist Activity (168 GPCRs [6]; Conc 1 uM): -2.2%; % Antagonist Activity (168 GPCRs [6]; Conc 1 uM): 17.8%; % Agonist Activity (168 GPCRs [6]; Conc 10 uM): -0.2%; % Antagonist Activity (168 GPCRs [6]; Conc 10 uM): 15.8%; % Agonist Activity (168 GPCRs [7]; Conc 1 uM): 2.2%; % Antagonist Activity (168 GPCRs [7]; Conc 1 uM): 14.5%; % Agonist Activity (168 GPCRs [7]; Conc 10 uM): -4.1%; % Antagonist Activity (168 GPCRs [7]; Conc 10 uM): 14.9%; % Agonist Activity (168 GPCRs [8]; Conc 1 uM): -0.1%; % Antagonist Activity (168 GPCRs [8]; Conc 1 uM): 2.3%; % Agonist Activity (168 GPCRs [8]; Conc 10 uM): 0.2%; % Antagonist Activity (168 GPCRs [8]; Conc 10 uM): 2%; % Agonist Activity (168 GPCRs [9]; Conc 1 uM): -4.4%; % Antagonist Activity (168 GPCRs [9]; Conc 1 uM): 12.4%; % Agonist Activity (168 GPCRs [9]; Conc 10 uM): -2.3%; % Antagonist Activity (168 GPCRs [9]; Conc 10 uM): -21.5%; % Agonist Activity (168 GPCRs [10]; NPBWR2, 1 uM): -0.3%; % Antagonist Activity (168 GPCRs [10]; NPBWR2, 1 uM): -14.1%; % Agonist Activity (168 GPCRs [10]; NPBWR2, Conc 10 uM): 1.3%; % Antagonist Activity (168 GPCRs [10]; NPBWR2, Conc 10 uM): -14% |

Source: article PMC10882719 (Frontiers in Neuroscience, 2024)
